According to US20080312220A1, “Oxadiazole Derivatives with Crth2 Receptor Activity” (priority 2005, published 2008):

Key:
[1] = target: T1, human CRTH2-Rluc (Homo sapiens, UniProt Q9Y5Y4); assay: Functional antagonist BRET assay (CRTH2-Rluc / GFP2-β-arrestin2 in HEK293 cells); type: cell-based; conditions: HEK293 cells stably expressing CRTH2-Rluc and GFP2-β-arr2, read-out: Antag. IC50
T1 construct: expressed in transfected cells; host or cells: HEK293 cell clone stably expressing βarr2-GFP2 and CRTH2-Rluc
T1 sequence (Q9Y5Y4 1-395): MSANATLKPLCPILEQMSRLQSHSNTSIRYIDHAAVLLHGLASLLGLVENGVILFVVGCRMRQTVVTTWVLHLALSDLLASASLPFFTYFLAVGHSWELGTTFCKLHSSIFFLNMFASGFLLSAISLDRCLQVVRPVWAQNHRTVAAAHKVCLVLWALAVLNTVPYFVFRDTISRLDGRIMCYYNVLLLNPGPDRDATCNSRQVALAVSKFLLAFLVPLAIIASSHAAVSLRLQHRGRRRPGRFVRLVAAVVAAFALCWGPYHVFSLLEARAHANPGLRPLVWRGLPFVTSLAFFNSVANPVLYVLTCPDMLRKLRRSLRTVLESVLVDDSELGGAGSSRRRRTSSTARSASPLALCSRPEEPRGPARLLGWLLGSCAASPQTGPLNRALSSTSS
Text: (§1) Generation/origin of the cDNA Constructs. The coding sequence of the human CRTH2 receptor (genbank accession no NM_004778) was amplified by PCR from a human hippocampus cDNA library and inserted into the pcDNA3.1(+) expression vector (invitrogen) via 5′ HindIII and 3′ EcoRI. To generate a CRTH2-Renilla luciferase (CRTH2-Rluc) fusion protein, the CRTH2 coding sequence without a STOP codon and Rluc were amplified, fused in frame by PCR and subcloned into the pcDNA3.1(+)Zeo expression vector (invitrogen). Human β-arrestin2 (β-arr2) N-terminally tagged with GFP^2 (βarr2-GFP^2) and Renilla luciferase were purchased from BioSignal Packard Inc, (Montreal, Canada). The sequence identity of the construct was verified by restriction endonuclease digests and sequencing in both directions on an ABI Prism (Applied Biosystems, Foster City, Calif.).
(§2) Cell Culture and Transfection. COS-7 cells were grown in Dulbecco's modified Eagle's medium (DMEM) 1885 supplemented with 10% fetal bovine serum, 100 units/ml penicillin, […], and kept at 37° C. in a 10% CO2 atmosphere. HEK293 cells were maintained in Minimum Essential medium (MEM) supplemented with 10% (v/v) heat inactivated fetal calf serum (HIFCS), 2 mM Glutamax™-I, 1% non essential amino acids (NEAA), 1% sodium pyruvate and 10 μg/ml gentamicin. For binding experiments, COS7 cells were transiently transfected with the CRTH2 receptor using a calcium phosphate-DNAcoprecipitation method with the addition of chloroquine (as described by Holst et al., 2001↓). To perform the functional Bioluminescence Resonance Energy Transfer (BRET) assays, a HEK293 cell clone stably expressing Parr2-GFP^2 and CRTH2-Rluc was generated (CRTH2-HEK293 cells).
BRET assay. Functional BRET assays were performed on HEK293 cells stably expressing human CRTH2-Rluc and GFP^2-β-arr2. Prior to their use in the BRET assay cells were detached and re-suspended in D-PBS with 1000 mg/L L-Glucose at a density of 2×10^6 cells/mL. DeepBlueC™ was diluted to 50 μM in D-PBS with 1000 mg/L L-Glucose (light sensitive). 100 μL of cell suspension was transferred to wells in a 96-well microplate (white OptiPlate) and placed in the Mithras LB 940 instrument (BERTHOLD TECHNOLOGIES, Bad Wildbad, Germany). 12 μL/well agonist was then injected by injector 1 and 10 μL/well DeepBlueC™ was injected simultaneously by injector 2. Five seconds after the injections the light output from the well was measured sequentially at 400 nm and 515 nm, and the BRET signal (mBRET ratio) was calculated by the ratio of the fluorescence emitted by GFP^2-β-arr2 (515 nm) over the light emitted by the receptor-Rluc (400 nm). Antagonists were added before placing the microplates into the Mithras LB 940 and allowed to incubate for 15 minutes prior to the addition of agonist and DeepBlueC™. Compounds were dissolved in DMSO and the final DMSO concentration was kept constant at 1% in the assay.
(§3) Curve analysis was performed with the GraphPadPrism software 3.0 (Graphpad Prism Inc., San Diego, USA) and IC50 values were calculated as a measure of the antagonistic potencies.

[2] = target: T2, human CRTH2 receptor (Homo sapiens, UniProt Q9Y5Y4); assay: Receptor binding assay, competition with [3H]PGD2 on whole transfected cells; conditions: competition with 0.1 nM [3H]PGD2, whole cells expressing CRTH2
T2 construct: expressed in transfected cells; host or cells: COS-7 cells, transient transfection (calcium phosphate)
T2 sequence (Q9Y5Y4 1-395): T1 sequence (Q9Y5Y4 1-395)
Text: as §1, §2
Binding assay. 24 h after transfection COS-7 cells were seeded into 96 well plates at a density of 30.000 cells/well. Competition binding experiments on whole cells were then performed about 18-24 h later using 0.1 nM [^3H]PGD2 (NEN, 172 Ci/mmol) in a binding buffer consisting of HBSS (GIBCO) and 10 mM HEPES. Competing ligands were diluted in DMSO which was kept constant at 1% (v/v) of the final incubation volume. Total and nonspecific binding were determined in the absence and presence of 10 μM PGD2. Binding reactions were routinely conducted for 3 h at 4° C. and terminated by 2 washes (100 μl each) with ice cold binding buffer. Radioactivity was determined by liquid scintillation counting in a TOPCOUNTER (Packard) following over night incubation in Microscint 20. Stable HEK293 cells were seeded at a density of 30.000 cells/well 18-24 h prior to the binding assay which was performed essentially as described for COS7 cells above. Determinations were made in duplicates.
as §3

IC50 [1] [µM]	IC50 [2] [µM]	SMILES
< 0.5	< 0.5	O=C(O)COc1ccc(Br)cc1-c1nc(C2(c3ccccc3)CC2)no1 [Example D1, {4-Bromo-2-[3-(1-phenylcyclopropyl)-[1,2,4]oxadiazol-5-yl]phenoxy}acetic acid]
< 0.5	< 0.5	CC(=O)N1CCC(c2ccccc2)(c2noc(-c3cc(Br)ccc3OCC(=O)O)n2)CC1 [Example D2, {2-[3-(1-Acetyl-4-phenyl-piperidin-4-yl)-[1,2,4]oxadiazol-5-yl]-4-bromo-phenoxy}-acetic acid]
< 0.5	< 0.5	O=C(O)COc1ccc(Br)cc1-c1nc(C2(c3ccccc3)CCCCC2)no1 [Example D3, {4-Bromo-2-[3-(1-phenyl-cyclohexyl)-[1,2,4]oxadiazol-5-yl]-phenoxy}-acetic acid]
< 0.5	< 0.5	O=C(O)COc1ccc(Br)cc1-c1nc(C(c2ccccc2)N2CCOCC2)no1 (stereo not drawn) [Example D4]
0.5 to 5	< 0.5	O=C(O)COc1ccc(Br)cc1-c1nc(C2(c3ccccc3)CCNCC2)no1 [Example D5, {4-Bromo-2-[3-(4-phenyl-piperidin-4-yl)-[1,2,4]oxadiazol-5-yl]-phenoxy}-acetic acid]
< 0.5	< 0.5	O=C(O)COc1ccc(Br)cc1-c1nc(C2(c3ccc(F)cc3)CC2)no1 [Example D6, (4-Bromo-2-{3-[1-(4-fluoro-phenyl)-cyclopropyl]-[1,2,4]oxadiazol-5-yl}-phenoxy)-acetic acid]
< 0.5	< 0.5	CCC(=O)N1CCC(c2ccccc2)(c2noc(-c3cc(Br)ccc3OCC(=O)O)n2)CC1 [Example D7, {4-Bromo-2-[3-(4-phenyl-1-propionyl-piperidin-4-yl)-[1,2,4]oxadiazol-5-yl]-phenoxy}-acetic acid]
< 0.5	< 0.5	CC(C)C(=O)N1CCC(c2ccccc2)(c2noc(-c3cc(Br)ccc3OCC(=O)O)n2)CC1 [Example D8, {4-Bromo-2-[3-(1-isobutyryl-4-phenyl-piperidin-4-yl)-[1,2,4]oxadiazol-5-yl]-phenoxy}-acetic acid]
< 0.5	< 0.5	O=C(O)COc1ccc(Br)cc1-c1nc(C2(c3ccc(Cl)cc3Cl)CC2)no1 [Example D9, (4-Bromo-2-{3-[1-(2,4-dichloro-phenyl)-cyclopropyl]-[1,2,4]oxadiazol-5-yl}-phenoxy)-acetic acid]
< 0.5	< 0.5	CS(=O)(=O)N1CCC(c2ccccc2)(c2noc(-c3cc(Br)ccc3OCC(=O)O)n2)CC1 [Example D10, {4-Bromo-2-[3-(1-methanesulfonyl-4-phenyl-piperidin-4-yl)-[1,2,4]oxadiazol-5-yl]-phenoxy}-acetic acid]
< 0.5	< 0.5	O=C(O)COc1ccc(Br)cc1-c1nc(C2(c3ccccc3)CCN(C(=O)C3CC3)CC2)no1 [Example D12, {4-Bromo-2-[3-(1-cyclopropanecarbonyl-4-phenyl-piperidin-4-yl)-[1,2,4]oxadiazol-5-yl]-phenoxy}-acetic acid]
< 0.5	< 0.5	O=C(O)COc1ccc(Br)cc1-c1nc(C2(c3c(Cl)cccc3Cl)CC2)no1 [Example D13, (4-Bromo-2-{3-[1-(2,6-dichloro-phenyl)-cyclopropyl]-[1,2,4]oxadiazol-5-yl}-phenoxy)-acetic acid]
< 0.5	< 0.5	O=C(O)COc1ccc(Br)cc1-c1nc(C2(c3ccccc3)CCC2)no1 [Example D14, {4-Bromo-2-[3-(1-phenyl-cyclobutyl)-[1,2,4]oxadiazol-5-yl]-phenoxy}-acetic acid]
< 0.5	< 0.5	O=C(O)COc1ccc(Br)cc1-c1nc(C2(c3ccccc3)CCN(S(=O)(=O)C3CC3)CC2)no1 [Example D15, {4-Bromo-2-[3-(1-cyclopropanesulfonyl-4-phenyl-piperidin-4-yl)-[1,2,4]oxadiazol-5-yl]-phenoxy}-acetic acid]
< 0.5	< 0.5	COC(=O)N1CCC(c2ccccc2)(c2noc(-c3cc(Br)ccc3OCC(=O)O)n2)CC1 [Example D16, 4-[5-(5-Bromo-2-carboxymethoxy-phenyl)-[1,2,4]oxadiazol-3-yl]-4-phenyl-piperidine-1-carboxylic acid methyl ester]
< 0.5	< 0.5	O=C(O)COc1ccc(Br)cc1-c1nc(C2(c3ccccc3)CCN(C(=O)CO)CC2)no1 [Example D18, (4-Bromo-2-{3-[1-(2-hydroxy-acetyl)-4-phenyl-piperidin-4-yl]-[1,2,4]oxadiazol-5-yl}-phenoxy)-acetic acid]
< 0.5	< 0.5	CS(=O)(=O)N1CCC(c2ccc(F)cc2)(c2noc(-c3cc(Br)ccc3OCC(=O)O)n2)CC1 [Example D19, (4-Bromo-2-{3-[4-(4-fluoro-phenyl)-1-methanesulfonyl-piperidin-4-yl]-[1,2,4]oxadiazol-5-yl}-phenoxy)-acetic acid]
< 0.5	< 0.5	O=C(O)COc1ccc(Br)cc1-c1nc(C(c2ccc(F)cc2)N2CCS(=O)(=O)CC2)no1 (stereo not drawn) [Example D20, (4-Bromo-2-{3-[(1,1-dioxo-1lambda*6*-thiomorpholin-4-yl)-(4-fluoro-phenyl)-methyl]-[1,2,4]oxadiazol-5-yl}-phenoxy)-acetic acid]
< 0.5	< 0.5	C[C@H](Oc1ccc(Br)cc1-c1nc(C2(c3ccc(F)cc3)CC2)no1)C(=O)O [Example D21, (S)-2-(4-Bromo-2-{3-[1-(4-fluoro-phenyl)-cyclopropyl]-[1,2,4]oxadiazol-5-yl}-phenoxy)-propionic acid]

SMILES	IC50 [1] [µM]	IC50 [2] [µM]
CN1CCC(c2ccccc2)(c2noc(-c3cc(Br)ccc3OCC(=O)O)n2)CC1 [Example D11, {4-Bromo-2-[3-(1-methyl-4-phenyl-piperidin-4-yl)-[1,2,4]oxadiazol-5-yl]-phenoxy}-acetic acid]	< 0.5	< 0.5
CC(=O)OCC(=O)N1CCC(c2ccccc2)(c2noc(-c3cc(Br)ccc3OCC(=O)O)n2)CC1 [Example D17, (2-{3-[1-(2-Acetoxy-acetyl)-4-phenyl-piperidin-4-yl]-[1,2,4]oxadiazol-5-yl}-4-bromo-phenoxy)-acetic acid]	< 0.5	< 0.5
